Reference: ChEMBL document CHEMBL4699462, “Prenylated Flavonoids from the Roots of Tephrosia rhodesica” (J Nat Prod, 2020)

Columns and labels:
[1] = tested on: Plasmodium falciparum; assay: Antiplasmodial activity against chloroquine-sensitive Plasmodium falciparum 3D7 infected in human erythrocytes assessed as inhibition of parasite growth incubated for 72 hrs by DAPI staining based fluorescence analysis; assay type: functional, organism-based; conditions: 3D7, Erythrocyte
[2] = tested on: HEK293; assay: Cytotoxicity against human HEK293 cells at 40 uM; assay type: cell-based; conditions: hek293, 40 µM
[3] = Cytotoxicity against human HEK293 cells assessed as cell death; assay type: cell-based; conditions: read-out: LD50 (the source's name)

What does the source list for `CC(C)=CCc1cc2c(cc1O)OC[C@@]1(O)c3cc4c(cc3O[C@@H]21)OCO4`?
IC50 [1]: 10.2 µM; Activity [2]: 27%

For `C=C(C)[C@H]1Cc2c(ccc3c2O[C@@H]2C(O)Oc4cc(OC)c(OC)cc4[C@@H]2C3=O)O1` (stereo partly drawn), which IC50 [1] is on record?
Its IC50 is 8.6 µM.

And the CC50 [3]?
Its CC50 is 10.9 µM.

For `COc1cc(OC)c2c(c1CC=C(C)C)O[C@H](c1ccccc1)C[C@H]2OC`, which IC50 [1] is on record?
The IC50 was 7.4 µM.

What about the Activity [2] of the same compound?
The Activity was 87%.

Which IC50 [1] does the source give for `COc1cc(OC)c2c(c1CC=C(C)C)O[C@H](c1ccccc1)C[C@H]2O` here?
Its IC50 is 14.5 µM.

For `CC(C)=CCC1(CC=C(C)C)C(=O)C(=O)C2=C1O[C@H](c1ccccc1)C[C@H]2O` (relative stereo), which IC50 [1] is on record?
The IC50 was 7 µM.

What about the Activity [2] of the same compound?
The Activity was 101%.

With `CC(C)=CCC1(CC=C(C)C)C(=O)[C@](O)(CC=C(C)C)C(=O)C2=C1O[C@H](c1ccccc1)C[C@H]2O` (relative stereo) as the compound, how does the IC50 [1] read?
Its IC50 is 5.7 µM.

What about the Activity [2] of the same compound?
The Activity was 34%.

Which IC50 [1] does the source give for `CC(C)=CCC1(CC=C(C)C)C(=O)[C@@](O)(CC=C(C)C)C(=O)C2=C1O[C@H](c1ccccc1)C[C@H]2O` (relative stereo) here?
Its IC50 is 7.3 µM.

What about the Activity [2] of the same compound?
Its Activity is 71%.
